Source: US20230083973A1, “SUBSTITUTED CYCLOPROPYL-2,2'-BIP[…], ANALOGUES THEREOF, AND METHODS USING SAME” (priority 2019, published 2023)

These compounds were tested on HBsAg (assay: HBsAg assay: inhibition of HBsAg in HepG2.2.15 cells (chemiluminescence immunoassay of supernatant)). Settings: Hepatitis B virus, HepG2.2.15, 144 h, read-out: sAg EC50, HepG2.2.15 cells; HBsAg in supernatant at day 6 after exposure to compound; 0.5% DMSO.
Type: cell-based, hepatitis B virus
Procedure: Inhibition of HBsAg was determined in HepG2.2.15 cells. Cells were maintained in culture medium containing 10% fetal calf serum, […], Glutamine, penicillin/streptomycin. Cells were seeded in 96-well collagen-coated plate at a density of 30,000 cells/well. Serially diluted compounds were added to cells next day at the final DMSO concentration of 0.5%. Cells were incubated with compounds for 2-3 days, after which medium was removed. Fresh medium containing compounds was added to cells for additional 3-4 days. At day 6 after exposure of compounds, supernatant was collected, the HBsAg immunoassay (microplate-based chemiluminescence immunoassay kits, CLIA, Autobio Diagnosics Co., Zhengzhou, China, Catalog # CL0310-2) was used to determine the level of HBsAg according to manufactory instruction. Dose-response curves were generated and the EC50 value (effective concentrations that achieved 50% inhibitory effect) were determined using XLfit software. In addition, cells were seeded at a density of 5,000 cells/well for determination of cell viability in the presence and absence of compounds by using CellTiter-Glo reagent (Promega).
Table 1 illustrates EC50 values obtained by the HBsAg assay for selected compounds.

Structure (SMILES)	EC50
COCCCn1ncc2c([C@@H]3C[C@H]3c3cnc(-c4ncccn4)nc3)cc(F)c(F)c21 (relative stereo) [Example 264, trans-4-(2-([2,2′-Bipyrimidin]-5-yl)cyclopropyl)-6,7-difluoro-1-(3-methoxypropyl)-1H-indazole]	4 nM
Fc1cc(C2CC2c2cnc(-c3ncccn3)nc2)cc(N2CCCC2)c1F (single isomer, unassigned) [Example 92, trans-5-(2-(3,4-Difluoro-5-(pyrrolidin-1-yl)phenyl)cyclopropyl)-2,2′-bipyrimidine]	24 nM
Fc1cc([C@@H]2C[C@H]2c2cnc(-c3ncccn3)nc2)cc(F)c1OC1CC2(COC2)C1 (relative stereo) [Example 242, trans-5-(2-(4-((2-Oxaspiro[3.3]heptan-6-yl)oxy)-3,5-difluorophenyl)cyclopropyl)-2,2′-bipyrimidine]	390 nM
COc1ccc([C@H]2C[C@H]2c2cnc(-c3ncccn3)nc2)c(F)c1 (relative stereo) [Example 73, cis-5-(2-(2-Fluoro-4-methoxyphenyl)cyclopropyl)-2,2′-bipyrimidine]	9000 nM
COc1cc(F)ccc1[C@@H]1C[C@H]1c1cnc(-c2ncccn2)nc1 (relative stereo) [Example 7, trans-5-(2-(4-Fluoro-2-methoxyphenyl)cyclopropyl)-2,2′-bipyrimidine]	370 nM
O[C@@H]1CCN(c2cc(C3CC3c3cnc(-c4ncccn4)nc3)cc(F)c2F)C1 (single isomer, unassigned) [Example 104]	78 nM
COc1cc([C@@H]2C[C@H]2c2cnc(-c3ccccn3)nc2)cc(F)c1F (relative stereo) [Example 174, trans-5-(2-(3,4-Difluoro-5-methoxyphenyl)cyclopropyl)-2-(pyridin-2-yl)pyrimidine]	67 nM
CCOC(=O)C1C(c2cnc(-c3ncccn3)nc2)C1c1cc(F)c(F)c(OC)c1 (stereo not drawn) [Example 263, trans-Ethyl 2-([2,2′-bipyrimidin]-5-yl)-3-(3,4-difluoro-5-methoxyphenyl)cyclopropane-1-carboxylate]	12000 nM
CN(CCO)c1cc([C@@H]2C[C@H]2c2cnc(-c3ncccn3)nc2)cc(F)c1F (relative stereo) [Example 244, trans-2-((5-(2-([2,2′-Bipyrimidin]-5-yl)cyclopropyl)-2,3-difluorophenyl)(methyl)amino)ethan-1-ol]	92 nM
Cn1ccc(COc2cc([C@@H]3C[C@H]3c3cnc(-c4ncccn4)nc3)cc(F)c2F)n1 (relative stereo) [Example 219, trans-5-(2-(3,4-Difluoro-5-((1-methyl-1H-pyrazol-3-yl)methoxy)phenyl)cyclopropyl)-2,2′-bipyrimidine]	96 nM

Same assay, conditions: read-out: sAg EC50; HepG2.2.15 cells; HBsAg in supernatant at day 6 after exposure to compound; 0.5% DMSO

Structure (SMILES)	EC50
Fc1ccc(C2CC2c2cnc(-c3ncccn3)nc2)cc1OC(F)F (single isomer, unassigned) [Example 185, trans-5-(2-(3-(Difluoromethoxy)-4-fluorophenyl)cyclopropyl)-2,2′-bipyrimidine]	120 nM
COc1cc(C2CC2c2cnc(-c3ncccn3)nc2-c2ccc3nc(C)sc3c2)ccc1F (single isomer, unassigned) [Example 141, trans-6-(5-(2-(4-Fluoro-3-methoxyphenyl)cyclopropyl)-[2,2′-bipyrimidin]-4-yl)-2-methylbenzo[d]thiazole]	1200 nM
Fc1ccc(C2CC2c2cnc(-c3ncccn3)nc2)cc1OCC1CC1 (single isomer, unassigned) [Example 25, trans-5-(2-(3-(Cyclopropylmethoxy)-4-fluorophenyl)cyclopropyl)-2,2′-bipyrimidine]	270 nM
Fc1cc(Cl)cc(C2CC2c2cnc(-c3ncccn3)nc2)c1 (single isomer, unassigned) [Example 118, trans-5-(2-(3-Chloro-5-fluorophenyl)cyclopropyl)-2,2′-bipyrimidine]	2000 nM
CO[C@@H]1CCN(c2cc(C3CC3c3cnc(-c4ncccn4)nc3)ccc2F)C1 (single isomer, unassigned) [Example 95]	170 nM
COc1cc(C2CC2c2cnc(-c3ncccn3)nc2)ccc1F (single isomer, unassigned) [Example 11, trans-5-(2-(4-Fluoro-3-methoxyphenyl)cyclopropyl)-2,2′-bipyrimidine]	730 nM
COc1cc(C2CC2c2cnc(-c3ncccn3)nc2)c(C)cc1Cl (single isomer, unassigned) [Example 52, trans-5-(2-(4-Chloro-5-methoxy-2-methylphenyl)cyclopropyl)-2,2′-bipyrimidine]	1000 nM
COc1cc(C2CC2c2cnc(-c3ncccn3)nc2)cc(Cl)c1F (single isomer, unassigned) [Example 148, trans-5-(2-(3-Chloro-4-fluoro-5-methoxyphenyl)cyclopropyl)-2,2′-bipyrimidine]	1000 nM
Fc1cc(Cl)cc(C2CC2c2cnc(-c3ncccn3)nc2)c1 (single isomer, unassigned) [Example 119, trans-5-(2-(3-Chloro-5-fluorophenyl)cyclopropyl)-2,2′-bipyrimidine]	330 nM
Fc1cc(C2CC2c2cnc(-c3ncccn3)nc2)cc(-n2ccnc2)c1F (single isomer, unassigned) [Example 181, trans-5-(2-(3,4-Difluoro-5-(1H-imidazol-1-yl)phenyl)cyclopropyl)-2,2′-bipyrimidine]	390 nM
Fc1cc(C2CC2c2cnc(-c3ncccn3)nc2)cc(OC2CCCC2)c1F (single isomer, unassigned) [Example 246, trans-5-(2-(3-(Cyclopentyloxy)-4,5-difluorophenyl)cyclopropyl)-2,2′-bipyrimidine]	150 nM
COc1c(F)ccc(C2CC2c2cnc(-c3ncccn3)nc2)c1F (single isomer, unassigned) [Example 190, trans-5-(2-(2,4-Difluoro-3-methoxyphenyl)cyclopropyl)-2,2′-bipyrimidine]	1300 nM
CCc1nc(-c2ncccn2)ncc1C1CC1c1ccc(F)c(OC)c1 (single isomer, unassigned) [Example 77, trans-4-Ethyl-5-(2-(4-fluoro-3-methoxyphenyl)cyclopropyl)-2,2′-bipyrimidine]	5000 nM
COCCCn1ncc2c(C3CC3c3cnc(-c4ncccn4)nc3)cc(F)c(F)c21 (single isomer, unassigned) [Example 265, trans-4-(2-([2,2′-Bipyrimidin]-5-yl)cyclopropyl)-6,7-difluoro-1-(3-methoxypropyl)-1H-indazole]	61 nM
O[C@H]1CCN(c2cc(C3CC3c3cnc(-c4ncccn4)nc3)cc(Cl)c2F)C1 (single isomer, unassigned) [Example 120]	99 nM
COc1cc(C2CC2c2cnc(-c3ncccn3)c3ccccc23)ccc1F (single isomer, unassigned) [Example 194, trans-4-(2-(4-Fluoro-3-methoxyphenyl)cyclopropyl)-1-(pyrimidin-2-yl)isoquinoline]	49000 nM
COC1CN(c2cc(C3CC3c3cnc(-c4ncccn4)nc3)ccc2F)C1 (single isomer, unassigned) [Example 47, trans-5-(2-(4-Fluoro-3-(3-methoxyazetidin-1-yl)phenyl)cyclopropyl)-2,2′-bipyrimidine]	370 nM
COc1c(Cl)ccc(C2CC2c2cnc(-c3ncccn3)nc2)c1Cl (single isomer, unassigned) [Example 133, trans-5-(2-(2,4-Dichloro-3-methoxyphenyl)cyclopropyl)-2,2′-bipyrimidine]	130 nM
Fc1cc(C2CC2c2cnc(-c3ncccn3)nc2)cc(OCC2CC2)c1F (single isomer, unassigned) [Example 128, trans-5-(2-(3-(Cyclopropylmethoxy)-4,5-difluorophenyl)cyclopropyl)-2,2′-bipyrimidine]	420 nM
Fc1ccc(C2CC2c2cnc(-c3ncccn3)nc2)cc1N1CCC1 (single isomer, unassigned) [Example 82, trans-5-(2-(3-(Azetidin-1-yl)-4-fluorophenyl)cyclopropyl)-2,2′-bipyrimidine]	110 nM
Fc1cc(C2CC2c2cnc(-c3ncccn3)nc2)cc(NC2CCCC2)c1F (single isomer, unassigned) [Example 208, trans-5-(2-([2,2′-Bipyrimidin]-5-yl)cyclopropyl)-N-cyclopentyl-2,3-difluoroaniline]	110 nM
COc1cc(C2CC2c2cnc(-c3ncccn3)nc2N2CCCCC2)ccc1F (single isomer, unassigned) [Example 145, trans-5-(2-(4-Fluoro-3-methoxyphenyl)cyclopropyl)-4-(piperidin-1-yl)-2,2′-bipyrimidine]	700 nM
CC1(C)CN(c2cc(C3CC3c3cnc(-c4ncccn4)nc3)cc(F)c2F)C1 (single isomer, unassigned) [Example 138, trans-5-(2-(3-(3,3-Dimethylazetidin-1-yl)-4,5-difluorophenyl)cyclopropyl)-2,2′-bipyrimidine]	1000 nM
Fc1cn(-c2cc(C3CC3c3cnc(-c4ncccn4)nc3)cc(F)c2F)cc1F (single isomer, unassigned) [Example 258, trans-5-(2-(3-(3,4-Difluoro-1H-pyrrol-1-yl)-4,5-difluorophenyl)cyclopropyl)-2,2′-bipyrimidine]	14 nM
